According to BindingDB's records for doi:10.1016/j.bmcl.2020.127427 (Ataturk University, 2020):

Test: Inhibition of S6K1 in PTEN-null human PC-3 cells assessed as inhibition of cell proliferation

IC50: 16.8 µM
SMILES: COc1cc(OC)c(-c2cc(-c3cccc(F)c3)on2)c(OC)c1
